These results are taken from patent US20240261367A1, “CYCLIC PEPTIDE IMMUNOMODULATORS” (priority 2021, published 2024).

T1 sequence (Q9NZQ7 18-239): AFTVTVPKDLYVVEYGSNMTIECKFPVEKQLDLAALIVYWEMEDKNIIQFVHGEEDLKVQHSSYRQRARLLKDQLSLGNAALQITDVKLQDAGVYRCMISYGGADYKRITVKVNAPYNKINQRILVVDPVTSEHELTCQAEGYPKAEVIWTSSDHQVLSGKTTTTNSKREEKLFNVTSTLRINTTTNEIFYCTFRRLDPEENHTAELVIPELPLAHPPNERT

This test concerns the target T1, PD-1/PD-L1 (Homo sapiens, UniProt Q9NZQ7).
T1 construct: TVMV protease site linker (C); made in house; host or cells: HEK293T cells
Kind of test: PD-1/PD-L1 Homogenous Time-Resolved Fluorescence (HTRF) binding assay. The note with it: PD-L1-His (10 nM) pre-incubated with inhibitor 15 m, then PD-1-Ig (20 nM). The text has this: Methods for Testing the Ability of Macrocyclic Peptides to Compete for the Binding of PD-1 to PD-L1 Using Homogenous Time-Resolved Fluorescence (HTRF) Binding Assays
The ability of the compounds of formula (I) to bind to PD-L1 was investigated using a PD-1/PD-L1 Homogenous Time-Resolved Fluorescence (HTRF) binding assay.
Homogenous Time-Resolved Fluorescence (HTRF) Binding Assay
The interaction of PD-1 and PD-L1 can be assessed using soluble, purified preparations of the extracellular domains of the two proteins. The PD-1 and PD-L1 protein extracellular domains were expressed as fusion proteins with detection tags, for PD-1, the tag was the Fc portion of Immunoglobulin (PD-1-Ig) and for PD-L1 it was the 6 histidine motif (PD-L1-His). All binding studies were performed in an HTRF assay buffer consisting of dPBS supplemented with 0.1% […] bovine serum albumin and 0.05% (v/v) Tween-20. […] HTRF detection was achieved using europium crypate-labeled anti-Ig (1 nM final) and allophycocyanin (APC) labeled anti-His (20 nM final). Antibodies were diluted in HTRF detection buffer and 5 μl was dispensed on top of the binding reaction. The reaction mixture was allowed to equilibrate for 30 minutes and the resulting signal (665 nm/620 nm ratio) was obtained using an EnVision fluorometer. Additional binding assays were established between the human proteins PD-1-Ig/PD-L2-His (20 & 5 nM, respectively) and CD80-His/PD-L1-Ig (100 & 10 nM, respectively).
Recombinant Proteins: Human PD-1 (25-167) with a C-terminal human Fc domain of immunoglobulin G (Ig) epitope tag [hPD-1 (25-167)-3S-IG] and human PD-L1 (18-239) with a C-terminal His epitope tag [hPD-L1(18-239)-TVMV-His] were expressed in HEK293T cells and purified sequentially by ProteinA affinity chromatography and size exclusion chromatography. Human PD-L2-His and CD80-His was obtained through commercial sources.
Table 1 lists the IC50 values for representative examples of this disclosure measured in the PD-1/PD-L1 Homogenous Time-Resolved Fluorescence (HTRF) binding assay.
Background: Time-resolved FRET reads energy transfer from a long-lived donor to a nearby acceptor.
By IC50 is commonly meant the concentration that inhibits the measured activity by half. Low values mean greater potency, high ones weaker potency. Turning to `CCCC[C@H]1C(=O)N(C)[C@@H](CCCC)C(=O)N[C@@H](CC(C)C)C(=O)N[C@H](C(=O)NCC(=O)N[C@@H](Cc2cn(CCOCCOCCOCCOCCOCCOCCOCCOCCOCCOCCOCCNC(=O)CC[C@H](NC(=O)CCCCCCCCCCCCCCCCC(=O)O)C(=O)O)nn2)C(=O)O)CSCC(=O)N[C@@H](Cc2ccc(O)cc2)C(=O)N(C)[C@@H](C)C(=O)N[C@@H](CC(N)=O)C(=O)N2CCC[C@H]2C(=O)N[C@@H](CNC(=O)OC)C(=O)N[C@@H](CC(C)C)C(=O)N2C[C@H](O)C[C@H]2C(=O)N[C@@H](Cc2c[nH]c3ccccc23)C(=O)N[C@@H](CCNC(=O)OC)C(=O)N[C@@H](CC2=CC(CC(=O)O)c3ccccc32)C(=O)N1C` (stereo partly drawn) [Example 1019], the IC50 came out at 6.3 nM. On to `CCCC[C@H]1C(=O)N(C)[C@@H](CCCC)C(=O)N[C@@H](CC(C)C)C(=O)N[C@H](C(=O)NCC(=O)N[C@@H](Cc2cn(CCOCCOCCOCCOCCOCCOCCOCCOCCOCCOCCOCCNC(=O)CC[C@H](NC(=O)CCCCCCCCCCCCCCCCC(=O)O)C(=O)O)nn2)C(=O)OCC)CSCC(=O)N[C@@H](Cc2ccc(O)cc2)C(=O)N(C)[C@@H](C)C(=O)N[C@@H](CC(N)=O)C(=O)N2CCC[C@H]2C(=O)N[C@@H](CN)C(=O)N[C@@H](CC(C)C)C(=O)N2C[C@H](O)C[C@H]2C(=O)N[C@@H](Cc2c[nH]c3ccccc23)C(=O)N[C@@H](CCN)C(=O)N[C@@H](CC2=CC(CC(=O)O)c3ccccc32)C(=O)N1C` (stereo partly drawn) [Example 1025], for which the IC50 worked out at 12 nM. The same measure for `CCCC[C@H]1C(=O)N(C)[C@@H](CCCC)C(=O)N[C@@H](CC(C)C)C(=O)N[C@H](C(=O)NCC(=O)N[C@@H](Cc2cn(CCOCCOCCOCCOCCOCCOCCOCCOCCOCCOCCOCCNC(=O)CC[C@H](NC(=O)CCCCCCCCCCCCCCCCC(=O)OC)C(=O)O)nn2)C(=O)O)CSCC(=O)N[C@@H](Cc2ccc(O)cc2)C(=O)N(C)[C@@H](C)C(=O)N[C@@H](CC(N)=O)C(=O)N2CCC[C@H]2C(=O)N[C@@H](CNC(=O)OCc2oc(=O)oc2C)C(=O)N[C@@H](CC(C)C)C(=O)N2C[C@H](O)C[C@H]2C(=O)N[C@@H](Cc2c[nH]c3ccccc23)C(=O)N[C@@H](CCN)C(=O)N[C@@H](Cc2cn(CC(=O)O)c3ccccc23)C(=O)N1C` [Example 7003]: 7.4 nM; for `CCCC[C@H]1C(=O)N(C)[C@@H](CCCC)C(=O)N[C@@H](CC(C)C)C(=O)N[C@H](C(=O)NCC(=O)N[C@@H](Cc2cn(CCOCCOCCOCCOCCOCCOCCOCCOCCOCCOCCOCCNC(=O)CC[C@H](NC(=O)CCCCCCCCCCCCCCCCC(=O)O)C(=O)O)nn2)C(=O)O)CSCC(=O)N[C@@H](Cc2ccc(O)cc2)C(=O)N(C)[C@@H](C)C(=O)N[C@@H](CC(N)=O)C(=O)N2CCC[C@H]2C(=O)N[C@@H](CNC(=O)OC(C)C)C(=O)N[C@@H](CC(C)C)C(=O)N2C[C@H](O)C[C@H]2C(=O)N[C@@H](Cc2c[nH]c3ccccc23)C(=O)N[C@@H](CCN)C(=O)N[C@@H](Cc2cn(CC(=O)O)c3ccccc23)C(=O)N1C` [Example 1003]: 9.1 nM. As for `CCCC[C@H]1C(=O)N(C)[C@@H](CCCC)C(=O)N[C@@H](CC(C)C)C(=O)N[C@H](C(=O)NCC(=O)N[C@@H](Cc2cn(CCOCCOCCOCCOCCOCCOCCOCCOCCOCCOCCOCCNC(=O)CC[C@H](NC(=O)CCCCCCCCCCCCCCCCC(=O)O)C(=O)O)nn2)C(=O)O)CSCC(=O)N[C@@H](Cc2ccc(O)cc2)C(=O)N(C)[C@@H](C)C(=O)N[C@@H](CC(N)=O)C(=O)N2CCC[C@H]2C(=O)N[C@@H](CNC(=O)OCC(C)C)C(=O)N[C@@H](CC(C)C)C(=O)N2C[C@H](O)C[C@H]2C(=O)N[C@@H](Cc2c[nH]c3ccccc23)C(=O)N[C@@H](CCN)C(=O)N[C@@H](CC2=CC(CC(=O)O)c3ccccc32)C(=O)N1C` (stereo partly drawn) [Example 1014], the IC50 turned out to be 3.1 nM. The same measure for `CCCC[C@H]1C(=O)N(C)[C@@H](CCCC)C(=O)N[C@@H](CC(C)C)C(=O)N[C@H](C(=O)NCC(=O)N[C@@H](Cc2cn(CCOCCOCCOCCOCCOCCOCCOCCOCCOCCOCCOCCNC(=O)CC[C@H](NC(=O)CCCCCCCCCCCCCCCCC(=O)O)C(=O)O)nn2)C(=O)O)CSCC(=O)N[C@@H](Cc2ccc(O)cc2)C(=O)N(C)[C@@H](C)C(=O)N[C@@H](CC(N)=O)C(=O)N2CCC[C@H]2C(=O)N[C@@H](CNC(=O)OCC)C(=O)N[C@@H](CC(C)C)C(=O)N2C[C@H](O)C[C@H]2C(=O)N[C@@H](Cc2c[nH]c3ccccc23)C(=O)N[C@@H](CCNC(=O)OCc2oc(=O)oc2C)C(=O)N[C@@H](Cc2cn(CC(=O)O)c3ccccc23)C(=O)N1C` [Example 7014]: 8.6 nM; for `CCCC[C@H]1C(=O)N(C)[C@@H](CCCC)C(=O)N[C@@H](CC(C)C)C(=O)N[C@H](C(=O)NCC(=O)N[C@@H](Cc2cn(CCOCCOCCOCCOCCOCCOCCOCCOCCOCCOCCOCCNC(=O)CC[C@H](NC(=O)CCCCCCCCCCCCCCCCC(=O)O)C(=O)OC)nn2)C(=O)O)CSCC(=O)N[C@@H](Cc2ccc(O)cc2)C(=O)N(C)[C@@H](C)C(=O)N[C@@H](CC(N)=O)C(=O)N2CCC[C@H]2C(=O)N[C@@H](CN)C(=O)N[C@@H](CC(C)C)C(=O)N2C[C@H](O)C[C@H]2C(=O)N[C@@H](Cc2c[nH]c3ccccc23)C(=O)N[C@@H](CCN)C(=O)N[C@@H](Cc2cn(CC(=O)OC)c3ccccc23)C(=O)N1C` [Example 3003]: 9.3 nM. Consider `CCCC[C@H]1C(=O)N(C)[C@@H](CCCC)C(=O)N[C@@H](CC(C)C)C(=O)N[C@H](C(=O)NCC(=O)N[C@@H](Cc2cn(CCOCCOCCOCCOCCOCCOCCOCCOCCOCCOCCOCCNC(=O)CC[C@H](NC(=O)CCCCCCCCCCCCCCCCC(=O)O)C(=O)OCC)nn2)C(=O)O)CSCC(=O)N[C@@H](Cc2ccc(O)cc2)C(=O)N(C)[C@@H](C)C(=O)N[C@@H](CC(N)=O)C(=O)N2CCC[C@H]2C(=O)N[C@@H](CN)C(=O)N[C@@H](CC(C)C)C(=O)N2C[C@H](O)C[C@H]2C(=O)N[C@@H](Cc2c[nH]c3ccccc23)C(=O)N[C@@H](CCN)C(=O)N[C@@H](CC2=CC(CC(=O)O)c3ccccc32)C(=O)N1C` (stereo partly drawn) [Example 1024], for which the IC50 was 13 nM. The same measure for `CCCC[C@H]1C(=O)N(C)[C@@H](CCCC)C(=O)N[C@@H](CC(C)C)C(=O)N[C@H](C(=O)NCC(=O)N[C@@H](Cc2cn(CCOCCOCCOCCOCCOCCOCCOCCOCCOCCOCCOCCNC(=O)CC[C@H](NC(=O)CCCCCCCCCCCCCCCCC(=O)O)C(=O)O)nn2)C(=O)O)CSCC(=O)N[C@@H](Cc2ccc(O)cc2)C(=O)N(C)[C@@H](C)C(=O)N[C@@H](CC(N)=O)C(=O)N2CCC[C@H]2C(=O)N[C@@H](CNC(=O)OCC)C(=O)N[C@@H](CC(C)C)C(=O)N2C[C@H](O)C[C@H]2C(=O)N[C@@H](Cc2c[nH]c3ccccc23)C(=O)N[C@@H](CCNC(=O)OC)C(=O)N[C@@H](Cc2cn(CC(=O)O)c3ccccc23)C(=O)N1C` [Example 7013]: 49 nM; for `CCCC[C@H]1C(=O)N(C)[C@@H](CCCC)C(=O)N[C@@H](CC(C)C)C(=O)N[C@H](C(=O)NCC(=O)N[C@@H](Cc2cn(CCOCCOCCOCCOCCOCCOCCOCCOCCOCCOCCOCCNC(=O)CC[C@H](NC(=O)CCCCCCCCCCCCCCCCC(=O)O)C(=O)O)nn2)C(=O)O)CSCC(=O)N[C@@H](Cc2ccc(O)cc2)C(=O)N(C)[C@@H](C)C(=O)N[C@@H](CC(N)=O)C(=O)N2CCC[C@H]2C(=O)N[C@@H](CNC(=O)OCc2oc(=O)oc2C)C(=O)N[C@@H](CC(C)C)C(=O)N2C[C@H](O)C[C@H]2C(=O)N[C@@H](Cc2c[nH]c3ccccc23)C(=O)N[C@@H](CCN)C(=O)N[C@@H](CC2=CC(CC(=O)O)c3ccccc32)C(=O)N1C` (stereo partly drawn) [Example 1021]: 27 nM. Consider `CCCC[C@H]1C(=O)N(C)[C@@H](CCCC)C(=O)N[C@@H](CC(C)C)C(=O)N[C@H](C(=O)NCC(=O)N[C@@H](Cc2cn(CCOCCOCCOCCOCCOCCOCCOCCOCCOCCOCCOCCNC(=O)CC[C@H](NC(=O)CCCCCCCCCCCCCCCCC(=O)O)C(=O)O)nn2)C(=O)OC)CSCC(=O)N[C@@H](Cc2ccc(O)cc2)C(=O)N(C)[C@@H](C)C(=O)N[C@@H](CC(N)=O)C(=O)N2CCC[C@H]2C(=O)N[C@@H](CN)C(=O)N[C@@H](CC(C)C)C(=O)N2C[C@H](O)C[C@H]2C(=O)N[C@@H](Cc2c[nH]c3ccccc23)C(=O)N[C@@H](CCN)C(=O)N[C@@H](Cc2cn(CC(=O)O)c3ccccc23)C(=O)N1C` [Example 6003], for which the IC50 is 5.5 nM. The same measure for `CCCC[C@H]1C(=O)N(C)[C@@H](CCCC)C(=O)N[C@@H](CC(C)C)C(=O)N[C@H](C(=O)NCC(=O)N[C@@H](Cc2cn(CCOCCOCCOCCOCCOCCOCCOCCOCCOCCOCCOCCNC(=O)CC[C@H](NC(=O)CCCCCCCCCCCCCCCCC(=O)OC)C(=O)OC)nn2)C(=O)O)CSCC(=O)N[C@@H](Cc2ccc(O)cc2)C(=O)N(C)[C@@H](C)C(=O)N[C@@H](CC(N)=O)C(=O)N2CCC[C@H]2C(=O)N[C@@H](CNC(=O)OCc2oc(=O)oc2C)C(=O)N[C@@H](CC(C)C)C(=O)N2C[C@H](O)C[C@H]2C(=O)N[C@@H](Cc2c[nH]c3ccccc23)C(=O)N[C@@H](CCN)C(=O)N[C@@H](Cc2cn(CC(=O)O)c3ccccc23)C(=O)N1C` [Example 7004]: 6.9 nM.
